Data set [1] is described as follows: Acute inhalation toxicity (LC50 4 h). As to conditions: inhalation for 4 hours, pure gas. It is filed as in vivo.
Data set [2] can be described thus: Boiling point. It is filed as physicochemical.
The nature of data set [3]: Vapor pressure. It is filed as physicochemical. The settings on record: 20° C.
For data set [4] the following is noted: in vivo; cited from earlier work.
The nature of data set [5]: Acute inhalation toxicity (LC50 4 h) of mixed gas based on KS B ISO 10298: 2012. As to conditions: mixed gas of CF3OCFCF2 and CO2, mixing ratio mol %. The protocol:
The mixed gas of the present invention may have a GWP of 1 or less, 0.9 or less, or 0.85 or less. In addition, the mixed gas of the present invention may have a GWP of 0.29 to 1, 0.29 to 0.9, or 0.29 to 0.85. […] In this case, a method for calculating GWP was based on Regulation (EU) NO 517/2014, and LC50, which represents lethal concentration 50% upon inhalation for 4 hours, was based one KS B ISO 10298: 2012.

The nature of data set [6]: Explosion limits of CF3OCFCF2 / CO2 / O2 (triangular diagram). From the text: In this case, the straight line AB may be a straight line connecting point A and point B, the straight line BC may be a straight line connecting point B and point C, the straight line CA may be a straight line connecting point C and point A, and in the point A, (x, y, z) may be (50, 0, 50), in the point B, (x, y, z) may be (5.1, 0, 94.9), and in the point C, (x, y, z) may be (8.2, 80, 11.8). Unlike the case above, when (x, y, z) is present in the triangle ABC (explosion triangle) composed of the points A, B, and C, there may be an explosion hazard due to flammability.
In FIG. 7, the explosion limits indicate the explosion limit line, and is a line connecting the explosion limit points (filled square points). On the other hand, no ignition (hollow rectangle points) indicates a non-ignition point.
In addition, point A in the triangular diagram of FIG. 7 represents upper flammability limit (UFL), and when point A is connected to point C, which is an end point on the explosion limit line, a straight line AC, which is an expected explosion limit (expected line), is formed. […] Meanwhile, the ICR line on the triangle diagram is tangent to the explosion triangle passing through 100% of O2, and the MXC value is 9.3% (C3F6O in CO2).

The nature of data set [7]: Lower flammability limit (LFL) calculation, KS B ISO 10156: 2017 combustible gas standard. The settings on record: mixed gas of CF3OCFCF2 and CO2, by mixing ratio of CF3OCFCF2; calculation results. From the text: Meanwhile, insulating gases used in electric devices that insulate electricity or extinguish arc are not supposed to belong to the category of combustible gases.
The calculation results of the lower flammability limit (LFL) according to the mixing ratio of the mixed gas of CF3OCFCF2 and CO2 are shown in the following table. In this case, the lower flammability limit is a concentration range in which flame propagation may take place when a combustible gas is mixed with air and ignited, expressed in volume concentration (vol %), and refers to the lowest value in this volume concentration.

Data set [8] can be described thus: Reactivity test with electrodes during dielectric strength test. The settings on record: room temperature, 1 atm, insulation test chamber. From the text:
In this case, the reactivity test was to determine a reaction with electrodes upon testing dielectric strength for each mixing ratio of the insulating gases in an enclosed space where no external gas was not allowed to enter (insulation test chamber), at R.T. (room temperature), and at a standard atmospheric pressure of 1 atm. In this case, materials of a sphere electrode are CuCr and Wcu, and materials of a plane electrode are CuCr and SUS.

The structures appear in SMILES notation. Read-outs that look alike come from different tables or passages of the source.

In the case of `FS(F)(F)(F)(F)F` [SF6], the “Acute inhalation toxicity (LC50 4 h)” value in data set [1] is 100,000~ ppmv. Further, in data set [2], the Boiling point is −63.7 °C. The Vapor pressure in data set [3] is 334 psia.

`N#CC(F)(C(F)(F)F)C(F)(F)F` [(CF3)2CFCN, heptafluoroisobutyronitrile]: the Boiling point in data set [2] was −4.7 °C. Moreover, the “Acute inhalation toxicity (LC50 4 h)” value in data set [4] is given as 10,000-15,000 ppmv. Further, the Vapor pressure in data set [3] stood at 36.7 psia.

Take `FC(F)=C(F)OC(F)(F)F` [CF3OCFCF2, trifluoromethyl trifluorovinyl ether]: the “LC50 4 h” value in data set [5] was 15,000 ppmv. In addition, in data set [1], the “Acute inhalation toxicity (LC50 4 h)” value was 10,000-15,000 ppmv. For the same molecule, the Boiling point in data set [2] was −29 °C. In addition, the Ignition result in data set [6] (C3F6O 8.6, CO2 82.5, O2 8.9 mol %) is reported as “No ignition confirmed at 8.6% C3F6O”; in data set [6] (C3F6O 8.8, CO2 85.0, O2 6.2 mol %) it was “No ignition confirmed at 8.8% C3F6O”. The molecule also showed an MXC value in data set [6] (C3F6O in CO2) of 9.3%. Besides, the “Upper flammability limit (UFL), point A, C3F6O” value in data set [6] (CO2 0, O2 50 mol %) is 50 mol %. Besides, in data set [6] (CO2 0.0, O2 94.9 mol %), the “Explosion limit (LEL), C3F6O” value turned out to be 5.1 mol %. Besides, the “Explosion limit, C3F6O” value was determined as 5.7 mol % in data set [6] (CO2 30.0, O2 64.3 mol %); 6.6 mol % in data set [6] (CO2 50.0, O2 43.4 mol %); 7.0 mol % in data set [6] (CO2 60.0, O2 33.0 mol %); 7.6 mol % in data set [6] (CO2 70.0, O2 22.4 mol %); 8.2 mol % in data set [6] (CO2 80.0, O2 11.8 mol %, point of tangency of ICR line). Further, in data set [7], the “Lower flammability limit (LFL)” value was 7.5 vol %. The Reaction with electrodes result in data set [8] is “reacted with electrodes at atmospheric pressure to form a carbon film”. The same molecule showed a Vapor pressure in data set [3] of 70.3 psia.

These data come from patent publication US20260038709A1 (priority 2020, published 2026).
